Measurements published in article PMC12607891, “A broadly conserved fungal chorismate mutase targets the plant shikimate pathway to regulate salicylic acid production and other secondary metabolites” (mBio, 2025).

Assays:
[1] = target: T1, SsCM1 ΔSP/cTP1-66 (Sclerotinia sclerotiorum, UniProt A7F9N9); experiment: HPLC of salicylic acid made in E. coli KRX expressing the protein; format: cell-based; settings: endogenous isochorismate of E. coli; 24 °C overnight, IPTG and rhamnose induction; isochorismate pyruvate lyase activity
T1 construct: gene SS1G_14320; residues 1-66 (signal peptide and chloroplast targeting peptide) removed; codon-optimized, pET28a, in E. coli KRX cells
T1 sequence (A7F9N9 entry or part of it, stated change not applied): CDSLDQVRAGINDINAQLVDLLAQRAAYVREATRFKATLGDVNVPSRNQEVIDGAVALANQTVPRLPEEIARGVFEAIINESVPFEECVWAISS

[2] = target: T2, AtCM3 (Arabidopsis thaliana, UniProt Q9C544); experiment: absorbance at […] nm, prephenate converted to phenylpyruvate; format: biochemical; settings: chorismate mutase activity assay; conditions as in cited procedure
T2 construct: gene CM3; His-tagged, pET, E. coli BL21, Ni-NTA
T2 sequence (Q9C544 48-316): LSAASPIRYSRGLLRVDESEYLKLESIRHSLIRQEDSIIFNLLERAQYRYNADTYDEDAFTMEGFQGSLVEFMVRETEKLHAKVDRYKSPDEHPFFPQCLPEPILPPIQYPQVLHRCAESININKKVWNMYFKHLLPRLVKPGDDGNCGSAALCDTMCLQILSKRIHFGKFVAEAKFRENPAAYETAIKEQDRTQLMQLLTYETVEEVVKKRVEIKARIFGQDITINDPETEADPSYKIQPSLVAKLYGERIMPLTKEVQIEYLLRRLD

[3] = target: T3, AtCM2 (Arabidopsis thaliana, UniProt Q9S7H4); experiment: as above; format: biochemical; settings: chorismate mutase activity assay; conditions as in cited procedure
T3 construct: gene CM2; His-tagged, pET, E. coli BL21, Ni-NTA; cytosolic enzyme
T3 sequence (Q9S7H4 1-265): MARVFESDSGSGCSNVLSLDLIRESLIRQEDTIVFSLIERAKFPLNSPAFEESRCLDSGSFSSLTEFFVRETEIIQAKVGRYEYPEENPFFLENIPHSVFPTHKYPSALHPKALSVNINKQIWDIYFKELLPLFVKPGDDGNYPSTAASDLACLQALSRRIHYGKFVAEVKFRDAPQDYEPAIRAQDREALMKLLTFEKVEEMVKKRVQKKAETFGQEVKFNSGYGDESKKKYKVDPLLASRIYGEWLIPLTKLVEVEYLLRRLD

[4] = target: T4, AtCM1 (Arabidopsis thaliana, UniProt P42738); experiment: as above; format: biochemical; settings: chorismate mutase activity assay; conditions as in cited procedure
T4 construct: gene CM1; His-tagged, pET, E. coli BL21, Ni-NTA
T4 sequence (P42738 66-340): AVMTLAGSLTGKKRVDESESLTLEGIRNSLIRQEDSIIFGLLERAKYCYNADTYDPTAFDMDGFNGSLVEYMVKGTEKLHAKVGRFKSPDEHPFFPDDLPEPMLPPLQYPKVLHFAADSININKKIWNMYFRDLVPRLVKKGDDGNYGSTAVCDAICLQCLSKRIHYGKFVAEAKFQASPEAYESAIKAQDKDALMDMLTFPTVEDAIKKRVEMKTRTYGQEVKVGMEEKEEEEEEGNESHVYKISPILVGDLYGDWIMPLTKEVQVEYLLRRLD

[5] = target: T5, Cmu1 (Mycosarcoma maydis, UniProt A0A0D1DWQ2); experiment: as above; format: biochemical; settings: weak chorismate mutase activity assay; conditions as in cited procedure
T5 construct: His-tagged, pET, E. coli BL21, Ni-NTA
T5 sequence (A0A0D1DWQ2 22-290): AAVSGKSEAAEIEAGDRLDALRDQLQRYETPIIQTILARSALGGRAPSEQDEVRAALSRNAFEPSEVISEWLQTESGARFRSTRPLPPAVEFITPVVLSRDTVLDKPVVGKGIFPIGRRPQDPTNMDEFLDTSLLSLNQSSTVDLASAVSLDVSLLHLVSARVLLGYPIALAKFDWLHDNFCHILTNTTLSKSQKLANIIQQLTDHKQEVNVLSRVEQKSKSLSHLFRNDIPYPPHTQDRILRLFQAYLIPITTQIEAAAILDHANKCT

[6] = target: T6, SsCM1 (Sclerotinia sclerotiorum, UniProt A7F9N9); experiment: as above; format: biochemical; settings: weak chorismate mutase activity assay; conditions as in cited procedure
T6 construct: gene SS1G_14320; His-tagged, pET, E. coli BL21, Ni-NTA
T6 sequence (A7F9N9 entry or part of it): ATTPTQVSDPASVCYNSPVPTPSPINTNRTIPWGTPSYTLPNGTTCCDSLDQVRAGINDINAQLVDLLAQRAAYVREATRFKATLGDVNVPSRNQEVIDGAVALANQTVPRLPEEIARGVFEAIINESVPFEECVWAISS

Row | SMILES | HPLC of salicylic acid made in E. coli KRX expressing the protein [1] | absorbance at 320 nm, prephenate converted to phenylpyruvate [2] | absorbance at 320 nm, prephenate converted to phenylpyruvate [3] | absorbance at 320 nm, prephenate converted to phenylpyruvate [4] | absorbance at 320 nm, prephenate converted to phenylpyruvate [5] | absorbance at 320 nm, prephenate converted to phenylpyruvate [6]
1 | C=C(O[C@H]1C=CC=C(C(=O)O)[C@@H]1O)C(=O)O [isochorismate] | SsCM1 possesses some IPL activity when expressed in E. coli |  |  |  |  | 
2 | C=C(O[C@@H]1C=C(C(=O)O)C=C[C@H]1O)C(=O)O [chorismate] |  | all tested chorismate mutases are able to convert chorismate into prephenate | all tested chorismate mutases are able to convert chorismate into prephenate | all tested chorismate mutases are able to convert chorismate into prephenate | all tested chorismate mutases are able to convert chorismate into prephenate | all tested chorismate mutases are able to convert chorismate into prephenate
